In patent US12318452B2, “Degraders of WEE1 kinase” (DANA-FARBER CANCER INSTITUTE, INC., priority 2018, dated 2025):

Tests used:
CRBN−/− MOLT4 cells = assay: CellTiter-Glo cell viability, 72 hours; type: cell-based
PLK1 = PLK1 (Homo sapiens, UniProt P53350); assay: PLK1 level by immunoblot in MOLT4 cells; type: cell-based
Method: MOLT4 cells were plated at 1.5 million cells per well in a 6-well plate, with 3 mL of media per well. Cells were then immediately treated with the indicated concentration of the indicated compound and incubated for the indicated amount of time. Cells were collected by transferring each well to a 15 mL conical, centrifuging (1000 rpm for 3 min), then washing the cell pellet 2× with cold PBS. Each cell pellet was then lysed in 100 μL of RIPA lysis buffer (+protease/phosphatase inhibitors). Samples were normalized and prepped in 4×LDS+10% β-mercaptoethanol and boiled for 5 min at 95° C. Lysates were probed for specified proteins by western blotting using the Bolt® system (Life Technologies™)
Immunoblotting: Cells were washed with phosphate-buffered saline (PBS) and then lysed using radioimmunoprecipitation assay (RIPA) buffer supplemented with protease and phosphatase inhibitor cocktail (Roche) on ice for 15 minutes. The lysates were centrifuged at 14,000 rpm for 15 minutes at 4° C. and protein was quantified by bicinchoninic acid (BCA) assay (Pierce™). […]
FIG. 2A is an immunoblot showing that compound 13 degraded Wee1 after a 6-hour treatment in MOLT4 cells, and induced the downstream changes expected from Wee1 loss—including a decrease in phosphorylated cyclin-dependent kinase 1 (pCDK1) (Y15) and an increase in pH 3. […] Proteins of interest were then assessed by western blotting.

Chain of PLK1 (P53350 whole entry): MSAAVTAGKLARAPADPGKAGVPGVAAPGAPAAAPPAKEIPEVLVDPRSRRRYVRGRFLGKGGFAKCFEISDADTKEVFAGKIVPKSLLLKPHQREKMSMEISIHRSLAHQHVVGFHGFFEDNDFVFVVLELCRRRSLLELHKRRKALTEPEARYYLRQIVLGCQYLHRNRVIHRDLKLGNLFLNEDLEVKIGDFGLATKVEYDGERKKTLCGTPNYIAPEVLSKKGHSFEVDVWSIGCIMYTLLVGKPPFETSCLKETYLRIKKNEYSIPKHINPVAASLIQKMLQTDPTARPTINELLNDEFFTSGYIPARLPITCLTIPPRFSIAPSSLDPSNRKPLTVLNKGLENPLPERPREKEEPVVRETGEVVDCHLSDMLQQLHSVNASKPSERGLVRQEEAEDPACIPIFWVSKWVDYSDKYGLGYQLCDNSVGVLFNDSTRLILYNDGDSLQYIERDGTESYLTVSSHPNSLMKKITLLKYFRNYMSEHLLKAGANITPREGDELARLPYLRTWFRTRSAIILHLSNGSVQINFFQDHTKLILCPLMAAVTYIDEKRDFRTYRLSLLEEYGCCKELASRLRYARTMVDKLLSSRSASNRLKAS

In the case of `C=CCn1c(=O)c2cnc(Nc3ccc(N4CCN(CCCNc5cccc6c5C(=O)N(C5CCC(=O)NC5=O)C6=O)CC4)cc3)nc2n1-c1cccc(C(C)(C)O)n1` (centres unmarked) [Compound 13, 4-((3-(4-(4-((2-allyl-1-(6-(2-hydroxypropan-2-yl)pyridin-2-yl)-3-oxo-2,3-dihydro-1H-pyrazolo[3,4-d]pyrimidin-6-yl)amino)phenyl)piperazin-1-yl)propyl)amino)-2-(2,6-dioxopiperidin-3-yl)isoindoline-1,3-dione], the “Rescue of anti-proliferative activity, CRBN−/− versus WT MOLT4 cells” value (CRBN−/− MOLT4 cells; Example 28, FIG. 3A/3B, 72-hour) is reported as roughly 15 fold, the “Shift in cellular IC50, CRBN−/− versus parental MOLT4 cells” value (CRBN−/− MOLT4 cells; Example 32, FIG. 6A) is reported as “approximately 6 fold” and the IC50 (CRBN−/− MOLT4 cells; Homo sapiens, MOLT-4, MOLT4 CRBN−/− cells, 72 hours, CellTiter-Glo, read-out: Antiproliferative IC50) is reported as 2220 nM. The PLK1 degradation (PLK1; 6-hour treatment) was “not degraded” and the PLK1 levels (PLK1; treated for up to 48 hrs) was “not reduced”.
